# Assay results as given in ChEMBL document CHEMBL5723584 (2023).
# Legend:
# [1] = target: CDK4/Cyclin D3 (Homo sapiens) (UniProt P11802+P30281); assay: activity of CDK4/cyclinD3(h) at 1.0 µM in the Eurofins Kinase panel; type: protein-complex assay; details: Compound concentration 1.0 uM
# [2] = target: Cyclin-dependent kinase 14/Cyclin-Y (Homo sapiens) (UniProt O94921+Q8ND76); assay: activity of CDK14/cyclinY(h) at 1.0 µM in the Eurofins Kinase panel; type: protein-complex assay; details: Compound concentration 1.0 uM
# [3] = target: Serine/threonine-protein kinase 16 (Homo sapiens) (UniProt O75716); assay: activity of STK16(h) at 1.0 µM in the Eurofins Kinase panel; details: Compound concentration 1.0 uM
# [4] = target: Casein kinase I isoform gamma-2 (Homo sapiens) (UniProt P78368); assay: activity of CK1gamma2(h) at 1.0 µM in the Eurofins Kinase panel; details: Compound concentration 1.0 uM
# [5] = target: Serine/threonine-protein kinase Nek9 (Homo sapiens) (UniProt Q8TD19); assay: activity of NEK9(h) at 1.0 µM in the Eurofins Kinase panel; details: Compound concentration 1.0 uM
# [6] = target: Mitogen-activated protein kinase kinase kinase kinase 2 (Homo sapiens) (UniProt Q12851); assay: activity of GCK(h) at 1.0 µM in the Eurofins Kinase panel; details: Compound concentration 1.0 uM
# [7] = target: Dual specificity protein kinase TTK (Homo sapiens) (UniProt P33981); assay: activity of TTK(h) at 1.0 µM in the Eurofins Kinase panel; details: Compound concentration 1.0 uM
# [8] = target: Phosphorylase b kinase gamma catalytic chain, skeletal muscle/heart isoform (Homo sapiens) (UniProt Q16816); assay: activity of PhKgamma1(h) at 1.0 µM in the Eurofins Kinase panel; details: Compound concentration 1.0 uM
# [9] = target: Dual specificity tyrosine-phosphorylation-regulated kinase 3 (Homo sapiens) (UniProt O43781); assay: activity of DYRK3(h) at 1.0 µM in the Eurofins Kinase panel; details: Compound concentration 1.0 uM
# [10] = target: Serine/threonine-protein kinase Nek11 (Homo sapiens) (UniProt Q8NG66); assay: activity of NEK11(h) at 1.0 µM in the Eurofins Kinase panel; details: Compound concentration 1.0 uM
# [11] = target: Calcium/calmodulin-dependent protein kinase type II subunit gamma (Homo sapiens) (UniProt Q13555); assay: activity of CaMKIIgamma(h) at 1.0 µM in the Eurofins Kinase panel; details: Compound concentration 1.0 uM
# [12] = target: Protein kinase C alpha type (Homo sapiens) (UniProt P17252); assay: activity of PKCalpha(h) at 1.0 µM in the Eurofins Kinase panel; details: Compound concentration 1.0 uM
# [13] = target: CDK7/Cyclin H/MNAT1 (Homo sapiens) (UniProt P51946+P50613+P51948); assay: activity of CDK7/cyclinH/MAT1(h) at 1.0 µM in the Eurofins Kinase panel; type: protein-complex assay; details: Compound concentration 1.0 uM
# [14] = target: Dual specificity mitogen-activated protein kinase kinase 2 (Homo sapiens) (UniProt P36507); assay: activity of MEK2(h) at 1.0 µM in the Eurofins Kinase panel; details: Compound concentration 1.0 uM
# [15] = target: Inhibitor of nuclear factor kappa-B kinase subunit beta (Homo sapiens) (UniProt O14920); assay: activity of IKKbeta(h) at 1.0 µM in the Eurofins Kinase panel; details: Compound concentration 1.0 uM
# [16] = target: Serine/threonine-protein kinase PLK3 (Homo sapiens) (UniProt Q9H4B4); assay: activity of Plk3(h) at 1.0 µM in the Eurofins Kinase panel; details: Compound concentration 1.0 uM
# [17] = target: Cyclin-dependent kinase-like 1 (Homo sapiens) (UniProt Q00532); assay: activity of CDKL1(h) at 1.0 µM in the Eurofins Kinase panel; details: Compound concentration 1.0 uM
# [18] = target: Homeodomain-interacting protein kinase 2 (Homo sapiens) (UniProt Q9H2X6); assay: activity of HIPK2(h) at 1.0 µM in the Eurofins Kinase panel; details: Compound concentration 1.0 uM
# [19] = target: Protein kinase C theta type (Homo sapiens) (UniProt Q04759); assay: activity of PKCtheta(h) at 1.0 µM in the Eurofins Kinase panel; details: Compound concentration 1.0 uM
# [20] = target: MAP kinase-interacting serine/threonine-protein kinase 2 (Homo sapiens, UniProt Q9HBH9); assay: Promega NanoBRET (MKNK2)
# [21] = target: Dual specificity tyrosine-phosphorylation-regulated kinase 1B (Homo sapiens) (UniProt Q9Y463); assay: activity of DYRK1B(h) at 1.0 µM in the Eurofins Kinase panel; details: Compound concentration 1.0 uM
# [22] = target: Serine/threonine-protein kinase SBK1 (Homo sapiens) (UniProt Q52WX2); assay: activity of SBK1(h) at 1.0 µM in the Eurofins Kinase panel; details: Compound concentration 1.0 uM
# [23] = target: Tyrosine-protein kinase BTK (Homo sapiens) (UniProt Q06187); assay: activity of BTK(h) at 1.0 µM in the Eurofins Kinase panel; details: Compound concentration 1.0 uM
# [24] = target: STE20-like serine/threonine-protein kinase (Homo sapiens) (UniProt Q9H2G2); assay: activity of SLK(h) at 1.0 µM in the Eurofins Kinase panel; details: Compound concentration 1.0 uM
# [25] = target: Serine/threonine-protein kinase D1 (Homo sapiens) (UniProt Q15139); assay: activity of PKCmu(h) at 1.0 µM in the Eurofins Kinase panel; details: Compound concentration 1.0 uM
# [26] = target: MAP kinase-activated protein kinase 2 (Homo sapiens) (UniProt P49137); assay: activity of MAPKAP-K2(h) at 1.0 µM in the Eurofins Kinase panel; details: Compound concentration 1.0 uM
# [27] = target: MAPK/MAK/MRK overlapping kinase (Homo sapiens) (UniProt Q9UQ07); assay: activity of MOK(h) at 1.0 µM in the Eurofins Kinase panel; details: Compound concentration 1.0 uM
# [28] = target: Tyrosine-protein kinase Tec (Homo sapiens) (UniProt P42680); assay: activity of Tec(h) activated at 1.0 µM in the Eurofins Kinase panel; details: Compound concentration 1.0 uM
# [29] = target: Serine/threonine-protein kinase BRSK2 (Homo sapiens) (UniProt Q8IWQ3); assay: activity of BrSK2(h) at 1.0 µM in the Eurofins Kinase panel; details: Compound concentration 1.0 uM
# [30] = target: Protein-tyrosine kinase 6 (Homo sapiens) (UniProt Q13882); assay: activity of BRK(h) at 1.0 µM in the Eurofins Kinase panel; details: Compound concentration 1.0 uM
# [31] = target: Dual specificity protein kinase CLK4 (Homo sapiens) (UniProt Q9HAZ1); assay: activity of CLK4(h) at 1.0 µM in the Eurofins Kinase panel; details: Compound concentration 1.0 uM
# [32] = target: Wee1-like protein kinase (Homo sapiens) (UniProt P30291); assay: activity of Wee1(h) at 1.0 µM in the Eurofins Kinase panel; details: Compound concentration 1.0 uM
# [33] = target: DNA-dependent protein kinase catalytic subunit (Homo sapiens) (UniProt P78527); assay: activity of DNA-PK(h) at 1.0 µM in the Eurofins Kinase panel; details: Compound concentration 1.0 uM
# [34] = target: Calcium/calmodulin-dependent protein kinase kinase 1 (Homo sapiens) (UniProt Q8N5S9); assay: activity of CaMKK1(h) at 1.0 µM in the Eurofins Kinase panel; details: Compound concentration 1.0 uM
# [35] = target: Mitogen-activated protein kinase kinase kinase 10 (Homo sapiens) (UniProt Q02779); assay: activity of MLK2(h) at 1.0 µM in the Eurofins Kinase panel; details: Compound concentration 1.0 uM
# [36] = target: Tyrosine-protein kinase JAK3 (Homo sapiens) (UniProt P52333); assay: activity of JAK3(h) at 1.0 µM in the Eurofins Kinase panel; details: Compound concentration 1.0 uM
# [37] = target: Ribosomal protein S6 kinase alpha-5 (Homo sapiens) (UniProt O75582); assay: activity of MSK1(h) at 1.0 µM in the Eurofins Kinase panel; details: Compound concentration 1.0 uM
# [38] = target: Mitogen-activated protein kinase 10 (Homo sapiens) (UniProt P53779); assay: activity of JNK3(h) at 1.0 µM in the Eurofins Kinase panel; details: Compound concentration 1.0 uM
# Protein kinase C theta type (Homo sapiens), sequence (Q04759 whole entry, looked up): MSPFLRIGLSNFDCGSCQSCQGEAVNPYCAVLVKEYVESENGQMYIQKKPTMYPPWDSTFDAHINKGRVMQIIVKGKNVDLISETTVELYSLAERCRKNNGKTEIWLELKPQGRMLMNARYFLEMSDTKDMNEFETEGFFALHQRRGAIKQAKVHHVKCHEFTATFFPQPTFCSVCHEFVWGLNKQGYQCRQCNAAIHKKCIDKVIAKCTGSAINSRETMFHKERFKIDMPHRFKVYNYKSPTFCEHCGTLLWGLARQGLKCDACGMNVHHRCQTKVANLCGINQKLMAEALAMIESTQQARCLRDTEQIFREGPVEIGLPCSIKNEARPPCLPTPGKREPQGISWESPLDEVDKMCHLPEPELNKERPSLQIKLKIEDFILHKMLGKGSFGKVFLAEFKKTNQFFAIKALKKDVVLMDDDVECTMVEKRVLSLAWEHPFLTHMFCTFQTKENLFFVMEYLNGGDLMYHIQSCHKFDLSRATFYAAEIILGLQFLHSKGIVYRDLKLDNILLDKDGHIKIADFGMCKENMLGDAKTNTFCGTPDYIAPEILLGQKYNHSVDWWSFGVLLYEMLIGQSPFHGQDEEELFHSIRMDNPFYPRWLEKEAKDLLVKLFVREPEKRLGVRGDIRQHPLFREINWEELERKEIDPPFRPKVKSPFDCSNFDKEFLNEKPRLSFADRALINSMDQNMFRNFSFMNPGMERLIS
# Calcium/calmodulin-dependent protein kinase type II subunit gamma (Homo sapiens), sequence (Q13555 whole entry): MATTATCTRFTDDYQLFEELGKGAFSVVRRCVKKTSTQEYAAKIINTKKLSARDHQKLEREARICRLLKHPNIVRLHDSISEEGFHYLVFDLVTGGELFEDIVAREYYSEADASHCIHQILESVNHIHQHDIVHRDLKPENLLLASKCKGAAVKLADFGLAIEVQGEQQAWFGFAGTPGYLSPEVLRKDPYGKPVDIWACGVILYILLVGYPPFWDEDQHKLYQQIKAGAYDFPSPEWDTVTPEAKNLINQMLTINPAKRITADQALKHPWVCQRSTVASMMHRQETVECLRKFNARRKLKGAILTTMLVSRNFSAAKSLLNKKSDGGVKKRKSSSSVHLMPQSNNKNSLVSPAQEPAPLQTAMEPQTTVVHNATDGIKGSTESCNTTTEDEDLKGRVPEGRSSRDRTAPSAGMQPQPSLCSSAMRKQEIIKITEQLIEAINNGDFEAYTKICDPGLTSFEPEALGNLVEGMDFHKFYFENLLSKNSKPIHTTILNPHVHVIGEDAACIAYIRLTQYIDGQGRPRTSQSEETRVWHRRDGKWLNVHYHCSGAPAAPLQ
# Dual specificity protein kinase CLK4 (Homo sapiens), sequence (Q9HAZ1 whole entry, looked up): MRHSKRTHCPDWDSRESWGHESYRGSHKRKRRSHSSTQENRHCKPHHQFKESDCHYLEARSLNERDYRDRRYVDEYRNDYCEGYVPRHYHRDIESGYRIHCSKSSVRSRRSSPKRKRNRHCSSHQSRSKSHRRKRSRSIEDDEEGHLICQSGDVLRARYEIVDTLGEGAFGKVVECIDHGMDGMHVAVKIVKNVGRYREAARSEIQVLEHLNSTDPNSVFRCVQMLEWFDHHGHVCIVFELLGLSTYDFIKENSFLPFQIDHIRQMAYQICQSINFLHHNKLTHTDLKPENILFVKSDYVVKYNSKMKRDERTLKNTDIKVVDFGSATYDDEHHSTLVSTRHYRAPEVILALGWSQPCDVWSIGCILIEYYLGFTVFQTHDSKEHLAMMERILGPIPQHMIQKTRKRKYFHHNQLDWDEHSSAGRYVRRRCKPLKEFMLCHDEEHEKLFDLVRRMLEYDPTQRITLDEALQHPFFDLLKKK
# Tyrosine-protein kinase BTK (Homo sapiens), sequence (Q06187 whole entry): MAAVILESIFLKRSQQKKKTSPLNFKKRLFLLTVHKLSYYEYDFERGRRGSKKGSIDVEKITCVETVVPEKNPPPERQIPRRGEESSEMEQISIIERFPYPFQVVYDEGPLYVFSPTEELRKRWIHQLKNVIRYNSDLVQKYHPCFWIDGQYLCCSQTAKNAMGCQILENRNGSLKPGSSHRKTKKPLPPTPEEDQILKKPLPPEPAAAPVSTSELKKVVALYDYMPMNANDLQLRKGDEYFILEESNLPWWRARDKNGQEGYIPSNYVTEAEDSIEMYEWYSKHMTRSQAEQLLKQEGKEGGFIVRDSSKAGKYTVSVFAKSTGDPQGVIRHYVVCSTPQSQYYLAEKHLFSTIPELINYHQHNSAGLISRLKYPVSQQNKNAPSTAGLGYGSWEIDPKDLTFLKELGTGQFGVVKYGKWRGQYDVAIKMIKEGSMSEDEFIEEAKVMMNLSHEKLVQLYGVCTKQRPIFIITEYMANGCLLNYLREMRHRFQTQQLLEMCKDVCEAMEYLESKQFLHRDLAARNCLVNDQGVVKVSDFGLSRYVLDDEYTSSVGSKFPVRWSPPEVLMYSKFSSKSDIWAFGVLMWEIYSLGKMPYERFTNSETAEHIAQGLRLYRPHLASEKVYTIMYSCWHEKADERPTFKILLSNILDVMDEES
# Serine/threonine-protein kinase 16 (Homo sapiens), sequence (O75716 whole entry, canonical isoform): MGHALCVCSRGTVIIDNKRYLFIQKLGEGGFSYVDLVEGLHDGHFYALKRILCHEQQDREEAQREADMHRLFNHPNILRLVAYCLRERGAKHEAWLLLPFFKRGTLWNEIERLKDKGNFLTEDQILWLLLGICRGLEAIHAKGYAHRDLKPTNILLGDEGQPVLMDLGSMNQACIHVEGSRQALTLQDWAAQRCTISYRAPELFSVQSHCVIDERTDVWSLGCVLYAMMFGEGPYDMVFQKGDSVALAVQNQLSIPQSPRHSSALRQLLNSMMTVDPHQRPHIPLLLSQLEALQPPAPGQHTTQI
# Dual specificity protein kinase TTK (Homo sapiens), sequence (P33981 whole entry, canonical isoform): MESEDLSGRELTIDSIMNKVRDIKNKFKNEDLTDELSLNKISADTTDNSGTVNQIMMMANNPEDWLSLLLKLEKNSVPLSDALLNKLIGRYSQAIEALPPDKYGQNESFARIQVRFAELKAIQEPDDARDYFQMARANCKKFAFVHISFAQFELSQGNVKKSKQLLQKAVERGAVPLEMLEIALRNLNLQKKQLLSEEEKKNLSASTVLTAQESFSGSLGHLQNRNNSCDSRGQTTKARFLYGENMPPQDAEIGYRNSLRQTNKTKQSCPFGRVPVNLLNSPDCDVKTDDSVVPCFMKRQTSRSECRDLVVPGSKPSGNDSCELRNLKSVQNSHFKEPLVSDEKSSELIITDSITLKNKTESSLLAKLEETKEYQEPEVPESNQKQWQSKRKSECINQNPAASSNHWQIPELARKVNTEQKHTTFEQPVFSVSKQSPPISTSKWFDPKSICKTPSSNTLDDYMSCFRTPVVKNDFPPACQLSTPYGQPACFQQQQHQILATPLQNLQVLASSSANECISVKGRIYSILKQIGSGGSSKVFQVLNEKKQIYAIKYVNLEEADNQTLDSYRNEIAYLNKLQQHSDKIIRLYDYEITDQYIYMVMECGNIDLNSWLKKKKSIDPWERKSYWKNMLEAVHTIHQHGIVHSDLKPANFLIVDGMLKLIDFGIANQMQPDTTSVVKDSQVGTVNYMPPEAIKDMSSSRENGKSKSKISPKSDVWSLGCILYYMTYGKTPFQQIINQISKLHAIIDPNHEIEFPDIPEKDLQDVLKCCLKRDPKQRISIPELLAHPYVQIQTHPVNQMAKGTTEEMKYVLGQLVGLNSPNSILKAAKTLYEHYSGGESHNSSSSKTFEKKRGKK
# Ribosomal protein S6 kinase alpha-5 (Homo sapiens), sequence (O75582 whole entry, looked up): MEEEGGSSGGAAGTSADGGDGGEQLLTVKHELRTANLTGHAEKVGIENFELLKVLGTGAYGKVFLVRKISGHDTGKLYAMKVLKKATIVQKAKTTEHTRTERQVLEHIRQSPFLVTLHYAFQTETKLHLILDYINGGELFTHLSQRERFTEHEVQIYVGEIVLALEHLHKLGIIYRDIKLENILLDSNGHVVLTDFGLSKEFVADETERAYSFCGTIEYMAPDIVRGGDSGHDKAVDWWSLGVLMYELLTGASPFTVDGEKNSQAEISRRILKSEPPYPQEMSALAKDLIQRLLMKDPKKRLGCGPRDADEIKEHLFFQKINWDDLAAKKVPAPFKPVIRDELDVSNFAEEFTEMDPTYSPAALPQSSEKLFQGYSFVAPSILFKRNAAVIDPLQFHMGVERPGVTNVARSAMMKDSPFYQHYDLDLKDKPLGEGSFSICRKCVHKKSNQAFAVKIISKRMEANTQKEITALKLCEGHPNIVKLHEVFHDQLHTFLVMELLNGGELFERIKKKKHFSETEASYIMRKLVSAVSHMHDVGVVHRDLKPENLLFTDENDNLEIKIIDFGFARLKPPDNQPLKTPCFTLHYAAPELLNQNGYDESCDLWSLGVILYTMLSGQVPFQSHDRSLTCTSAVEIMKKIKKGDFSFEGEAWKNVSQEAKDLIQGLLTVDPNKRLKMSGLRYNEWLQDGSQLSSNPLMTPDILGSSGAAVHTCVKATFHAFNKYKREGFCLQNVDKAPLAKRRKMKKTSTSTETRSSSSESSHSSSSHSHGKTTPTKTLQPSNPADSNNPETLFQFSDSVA
# MAPK/MAK/MRK overlapping kinase (Homo sapiens), sequence (Q9UQ07 whole entry): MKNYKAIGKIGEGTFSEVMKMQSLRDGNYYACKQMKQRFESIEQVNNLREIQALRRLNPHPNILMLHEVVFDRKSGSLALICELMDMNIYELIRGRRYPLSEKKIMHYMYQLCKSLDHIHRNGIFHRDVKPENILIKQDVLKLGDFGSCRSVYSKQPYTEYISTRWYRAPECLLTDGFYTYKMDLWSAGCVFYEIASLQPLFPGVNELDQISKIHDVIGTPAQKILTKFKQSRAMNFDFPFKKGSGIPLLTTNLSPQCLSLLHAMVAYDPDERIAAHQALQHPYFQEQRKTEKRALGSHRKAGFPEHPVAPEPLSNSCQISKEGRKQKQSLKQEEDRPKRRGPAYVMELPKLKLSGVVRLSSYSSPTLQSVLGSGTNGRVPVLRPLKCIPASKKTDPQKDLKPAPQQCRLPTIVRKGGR
smiles,measurement,setting,value
Cc1cc2c(-c3ccc(NC(=O)[C@H](N)CC(C)(C)C)cc3C)ccnc2[nH]1,activity,[1],74%
same,activity,[2],91%
same,activity,[3],94%
same,activity,[4],97%
same,activity,[5],79%
same,activity,[6],118%
same,activity,[7],102%
same,activity,[8],101%
same,activity,[9],99%
same,activity,[10],97%
same,activity,[11],106%
same,activity,[12],92%
same,activity,[13],95%
same,activity,[14],92%
same,activity,[15],99%
same,activity,[16],100%
same,activity,[17],99%
same,activity,[18],105%
same,activity,[19],103%
same,IC50,[20],5.5 µM (not active)
same,activity,[21],108%
same,activity,[22],97%
same,activity,[23],122%
same,activity,[24],109%
same,activity,[25],109%
same,activity,[26],72%
same,activity,[27],90%
same,activity,[28],126%
same,activity,[29],83%
same,activity,[30],83%
same,activity,[31],85%
same,activity,[32],94%
same,activity,[33],107%
same,activity,[34],89%
same,activity,[35],77%
same,activity,[36],106%
same,activity,[37],111%
same,activity,[38],88%
